Assay results from ChEMBL document CHEMBL4837249, “Discovery of Potent Antiallergic Agents Based on an o-Aminopyridinyl Alkynyl Scaffold” (J Med Chem, 2021).
Calls of active or inactive are those of the source. The calls are words filed in the database; no cut-off is given here.

Experiments:
[1] = AUC (0 to t) in BALB/c mouse at 2 mg/kg, iv measured up to 24 hrs by LC-MS/MS analysis; format: ADME, organism-based; set-up: route intravenous, dose 2 mg/kg, time <=24; settings: in vivo
[2] = Toxicity in anti-DNP IgE sensitized BALB/c mouse assessed as hemorrhage at 40 mg/kg, po; format: organism-based; settings: in vivo
[3] = molecular target: Tyrosine-protein kinase SYK (Rattus norvegicus) (UniProt Q64725); test: Inhibition of Syk phosphorylation in rat RBL-2H3 cells assessed as inhibition of Fc epsilonRI-mediated signal transduction by Western blot analysis; format: cell-based; settings: dose 8-200 nM
[4] = Cmax in BALB/c mouse at 20 mg/kg, po measured up to 24 hrs by LC-MS/MS analysis; format: ADME, organism-based; set-up: route oral, dose 20 mg/kg, time <=24; settings: in vivo
[5] = MRT in BALB/c mouse at 20 mg/kg, po measured up to 24 hrs by LC-MS/MS analysis; format: ADME, organism-based; settings: in vivo
[6] = Volume of distribution at steady state in BALB/c mouse at 2 mg/kg, iv measured up to 24 hrs by LC-MS/MS analysis; format: ADME, organism-based; settings: in vivo, read-out: Vdss
Mus musculus = test: Antiallergic activity against anti-DNP IgE sensitized house dust mite-induced BALB/c mouse pulmonary allergic inflammation model assessed as by reduction in serum total IgE level at 40 mg/kg, po measured every 5 mins for 60 mins; format: functional, organism-based

Sequence of Tyrosine-protein kinase SYK (Rattus norvegicus) (Q64725 whole entry, looked up): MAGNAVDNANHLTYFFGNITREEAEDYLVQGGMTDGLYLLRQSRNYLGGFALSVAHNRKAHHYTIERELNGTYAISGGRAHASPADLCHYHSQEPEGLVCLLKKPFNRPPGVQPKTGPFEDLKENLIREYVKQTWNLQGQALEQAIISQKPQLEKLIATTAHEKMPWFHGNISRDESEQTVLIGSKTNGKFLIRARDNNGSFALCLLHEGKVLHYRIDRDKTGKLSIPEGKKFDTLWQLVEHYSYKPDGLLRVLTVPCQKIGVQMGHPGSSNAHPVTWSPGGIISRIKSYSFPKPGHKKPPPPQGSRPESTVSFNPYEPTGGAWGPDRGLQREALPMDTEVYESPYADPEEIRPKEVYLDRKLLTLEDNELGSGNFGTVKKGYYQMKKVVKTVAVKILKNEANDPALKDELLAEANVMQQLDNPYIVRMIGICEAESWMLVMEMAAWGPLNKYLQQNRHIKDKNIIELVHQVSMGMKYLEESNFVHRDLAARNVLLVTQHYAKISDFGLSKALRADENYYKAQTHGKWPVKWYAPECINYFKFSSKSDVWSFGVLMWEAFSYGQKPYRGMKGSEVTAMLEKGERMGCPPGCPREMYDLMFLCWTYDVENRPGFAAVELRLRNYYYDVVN

Q: Which AUC(0-t) at 24 h [1] does the source give for `Cc1ccc(C(=O)Nc2cc(C(F)(F)F)cc(C(F)(F)F)c2)cc1C#Cc1cc(-c2cnn(C)c2)cnc1N` here?
A: 2130 ng·h/mL

Q: What about the Activity [2] of the same compound?
A: Non-Toxic

Q: And the inhibition [3]?
A: Dose-Dependent Effect

Q: What about the Cmax [4] of the same compound?
A: 1940 ng/mL

Q: And the MRT [5]?
A: 11.2 h

Q: What about the Vd [6] of the same compound?
A: 4 L/kg

Q: And the Activity (Mus musculus)?
A: Active
